Structures are written as SMILES. Some results are limits rather than exact numbers.

The assay deals with T1, Adenosine receptor A1 (Homo sapiens) (UniProt P30542).
T1 sequence (whole entry): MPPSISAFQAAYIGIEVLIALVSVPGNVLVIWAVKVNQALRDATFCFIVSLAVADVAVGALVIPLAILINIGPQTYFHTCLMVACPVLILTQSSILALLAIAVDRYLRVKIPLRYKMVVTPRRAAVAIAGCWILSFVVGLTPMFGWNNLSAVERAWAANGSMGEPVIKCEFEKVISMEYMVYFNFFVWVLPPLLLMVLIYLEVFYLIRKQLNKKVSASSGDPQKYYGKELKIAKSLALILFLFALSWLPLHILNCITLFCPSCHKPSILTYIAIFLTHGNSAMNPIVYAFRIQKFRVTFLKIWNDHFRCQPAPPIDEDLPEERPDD
Nature of the assay: Displacement of [3H]DPCPX from human adenosine A1 receptor expressed in CHO cell membranes at 1 uM by competition association assay.
Consider `N#Cc1c(N)nc(SCc2csc(-c3ccc(Br)cc3)n2)c(C#N)c1-c1ccc(O)cc1`, for which the inhibition was over 80%.
In turn, `CC(=O)Nc1ccc(-c2nc(SCc3cccc(CCC(=O)N4CCN(CCN5CCCC5)CC4)n3)nc(N)c2C#N)cc1` came in with an inhibition of under 80%.
Then `N#Cc1c(N)nc(SCc2nc(-c3ccc(Cl)cc3)sc2Br)c(C#N)c1-c1ccc2c(c1)OCO2`, with over 80%; and `N#Cc1c(N)nc(SCc2csc(-c3cccc(Cl)c3)n2)nc1-c1ccc2c(c1)OCO2`, with over 80%; and `N#Cc1c(N)nc(SCc2csc(-c3ccc([N+](=O)[O-])cc3)n2)nc1-c1ccc2c(c1)OCO2`, with over 80%.
The compound `N#Cc1c(N)nc(SCc2csc(-c3ccc(Br)cc3)n2)nc1-c1ccc2c(c1)OCO2` came in with an inhibition of over 80%.
The compound `N#Cc1c(N)nc(SCc2ccccc2[N+](=O)[O-])nc1-c1ccccc1` had an inhibition of over 80%.
Then `CC(=O)Nc1ccc(-c2nc(SCc3csc(-c4ccc(Cl)cc4)n3)nc(N)c2C#N)cc1`, with over 80%; and `N#Cc1c(N)nc(SCc2csc(-c3ccccc3Cl)n2)c(C#N)c1-c1ccc(O)cc1`, with over 80%.
Then `N#Cc1c(N)nc(SCc2csc(-c3ccccc3F)n2)nc1-c1ccc2c(c1)OCO2`, with over 80%; and `COc1ccc(-c2c(C#N)c(N)nc(SCc3csc(-c4cccc(F)c4)n3)c2C#N)cc1`, with over 80%; and `CC(C)(C)Nc1nc(SCc2csc(-c3ccc(Cl)cc3)n2)nc(-c2ccc3c(c2)OCO3)c1C#N`, with under 80%.
As for `CCCCNc1nc(SCc2csc(-c3ccc(Cl)cc3)n2)nc(-c2ccc3c(c2)OCO3)c1C#N`, the figure is under 80%.
On to `CCC(CC)Nc1nc(SCc2csc(-c3ccc(Cl)cc3)n2)nc(-c2ccc3c(c2)OCO3)c1C#N`, for which the inhibition is under 80%.
As for `N#Cc1c(N)nc(SCc2csc(-c3ccc(Cl)cc3)n2)nc1-c1ccc(O)cc1`, the figure is over 80%.
Then `N#Cc1c(N)nc(SCc2csc(-c3cccc(F)c3)n2)c(C#N)c1-c1ccc(O)cc1`, with over 80%.
On to `COc1ccc(-c2c(C#N)c(N)nc(SCc3csc(-c4ccccc4F)n3)c2C#N)cc1`, for which the inhibition was over 80%.
For `N#Cc1c(N)nc(SCc2csc(-c3ccc(F)cc3)n2)c(C#N)c1-c1ccc(O)cc1`, the inhibition was over 80%.
As for `N#Cc1c(N)nc(SCc2coc(-c3cccc(F)c3)n2)nc1-c1ccc2c(c1)OCO2`, the figure is over 80%; as for `N#Cc1c(N)nc(SCc2coc(-c3ccc(Cl)cc3)n2)c(C#N)c1-c1ccc(O)cc1`, over 80%.
Then `CCNc1nc(SCc2csc(-c3ccc(Cl)cc3)n2)cc(-c2ccc3c(c2)OCO3)c1C#N`, with over 80%.
Then `N#Cc1c(N)nc(SCc2csc(C3CCCCC3)n2)nc1-c1ccc2c(c1)OCO2`, with over 80%.
`N#Cc1c(N)nc(SCc2csc(-c3ccc(Cl)cc3)n2)nc1-c1ccc(OC(F)(F)F)cc1` displayed an inhibition of over 80%.
For the compound `N#Cc1c(N)nc(SCc2csc(-c3ccc(Cl)c(Cl)c3)n2)c(C#N)c1-c1ccc(O)cc1`, the inhibition is over 80%.
As for `N#Cc1c(NCCCc2ccccc2)nc(SCc2csc(-c3ccc(Cl)cc3)n2)nc1-c1ccc2c(c1)OCO2`, the figure is under 80%; as for `COc1ccc(-c2nc(SCc3coc(-c4cccc(F)c4)n3)nc(N)c2C#N)cc1`, under 80%.
For the compound `N#Cc1c(N)nc(SCc2csc(-c3ccc(I)cc3)n2)nc1-c1ccc2c(c1)OCO2`, the inhibition was over 80%.
As for `Cc1ccc(-c2nc(SCc3csc(-c4ccc(Cl)cc4)n3)nc(N)c2C#N)cc1`, the figure is under 80%; as for `CC(=O)Nc1ccc(-c2nc(SCc3cccc(CCC(=O)N(C)CCN(C)C)n3)nc(N)c2C#N)cc1`, under 80%.
As for `CN(C)c1ccc(-c2nc(SCc3csc(-c4ccc(Cl)cc4)n3)nc(N)c2C#N)cc1`, the figure is over 80%; as for `N#Cc1c(N)nc(SCc2csc(-c3ccc(F)cc3)n2)nc1-c1ccc2c(c1)OCO2`, over 80%.
For the compound `C#CCNc1nc(SCc2csc(-c3ccc(Cl)cc3)n2)cc(-c2ccc3c(c2)OCO3)c1C#N`, the inhibition is over 80%.
Compound `COc1ccc(-c2c(C#N)c(N)nc(SCc3coc(-c4ccc(F)cc4)n3)c2C#N)cc1` came in with an inhibition of over 80%.
For the compound `CC(=O)Nc1ccc(-c2nc(SCc3cccc(CCC(=O)N4CCN(CCN(C(C)C)C(C)C)CC4)n3)nc(N)c2C#N)cc1`, the inhibition was under 80%.
`N#Cc1c(N)nc(SCc2coc(-c3cccc(F)c3)n2)c(C#N)c1-c1ccc(O)cc1` displayed an inhibition of over 80%.
As for `N#Cc1c(N)nc(SCc2csc(-c3ccccc3F)n2)c(C#N)c1-c1ccc(O)cc1`, the figure is over 80%.
As for `N#Cc1c(N)nc(SCc2cscn2)nc1-c1ccc2c(c1)OCO2`, the figure is over 80%; as for `N#Cc1c(N)nc(SCc2csc(-c3cccc(Cl)c3)n2)c(C#N)c1-c1ccc(O)cc1`, over 80%.
Then `N#Cc1c(N)nc(SCc2coc(-c3ccc(F)cc3)n2)c(C#N)c1-c1ccc(O)cc1`, with over 80%; and `N#Cc1c(N)nc(SCc2csc(-c3ccccc3Cl)n2)nc1-c1ccc2c(c1)OCO2`, with over 80%.
In turn, `N#Cc1c(N)nc(SCc2csc(N3CCOCC3)n2)nc1-c1ccc2c(c1)OCO2` returned an inhibition of over 80%.
Then `N#Cc1c(N)nc(SCc2coc(-c3ccc(Cl)cc3)n2)nc1-c1ccc2c(c1)OCO2`, with over 80%; and `COc1ccc(-c2c(C#N)c(N)nc(SCc3coc(-c4ccc(Cl)cc4)n3)c2C#N)cc1`, with over 80%; and `N#Cc1c(N)nc(SCc2csc(-c3ccc(Cl)cc3)n2)nc1-c1ccc(OCCO)cc1`, with over 80%.
As for `N#Cc1c(N)nc(SCc2csc(-c3ccc4c(c3)OCO4)n2)nc1-c1ccc2c(c1)OCO2`, the figure is over 80%; as for `N#Cc1c(N)nc(SCc2csc(-c3ccc(C(F)(F)F)cc3)n2)nc1-c1ccc2c(c1)OCO2`, over 80%; as for `Cc1ccc(-c2nc(CSc3nc(N)c(C#N)c(-c4ccc5c(c4)OCO5)n3)cs2)cc1`, over 80%.
Then `N#Cc1c(-c2ccc3c(c2)OCO3)cc(SCc2csc(-c3ccc(Cl)cc3)n2)nc1NC1CC1`, with over 80%; and `COc1ccc(-c2nc(SCc3csc(-c4ccc(Cl)cc4)n3)nc(N)c2C#N)cc1`, with under 80%.
The compound `Cc1ccc(-c2nc(CSc3nc(N)c(C#N)c(-c4ccc(O)cc4)c3C#N)cs2)cc1` yielded an inhibition of over 80%.
Then `N#Cc1c(N)nc(SCc2nc(-c3ccc(Cl)cc3)sc2Cl)c(C#N)c1-c1ccc2c(c1)OCO2`, with over 80%; and `N#Cc1c(NC2CCCCC2)nc(SCc2csc(-c3ccc(Cl)cc3)n2)nc1-c1ccc2c(c1)OCO2`, with under 80%.
In turn, `N#Cc1c(N)nc(SCc2csc(-c3ccc(Cl)c(Cl)c3)n2)nc1-c1ccc2c(c1)OCO2` showed an inhibition of over 80%.
As for `N#Cc1c(N)nc(SCc2csc(-c3cccc(F)c3)n2)nc1-c1ccc2c(c1)OCO2`, the figure is over 80%.
Then `CN(C)CCNc1nc(SCc2csc(-c3ccc(Cl)cc3)n2)nc(-c2ccc3c(c2)OCO3)c1C#N`, with under 80%; and `COc1ccc(-c2nc(CSc3nc(N)c(C#N)c(-c4ccc(O)cc4)c3C#N)cs2)cc1`, with over 80%; and `CC(C)CCNc1nc(SCc2csc(-c3ccc(Cl)cc3)n2)nc(-c2ccc3c(c2)OCO3)c1C#N`, with under 80%.
Then `N#Cc1c(N)nc(SCc2csc(-c3ccccc3)n2)nc1-c1ccc2c(c1)OCO2`, with over 80%.

The values are drawn from ChEMBL document CHEMBL3612021, “Structure-kinetics relationships of Capadenoson derivatives as adenosine A1 receptor agonists” (Eur J Med Chem, 2015).
